The values below come from US20210009673A1, “METHODS FOR REGULATING BREAST CANCERS” (priority 2018, published 2021).

Test [1] has as its system Akt. Kind of test: phosphorylation of Akt in PTN-stimulated HUVS cells. In kind it is cell-based, human. The settings on record: cells preincubated with EGFR inhibitor; PTN 2-20 minutes. As to the method:
FIG. 11: FIG. 11 illustrates: human umbilical vein stromal cells not stimulated or stimulated with 50 ng/ml of PTN for 2, 5, 10 or 20 minutes were used to prepare cell lysates that were analyzed in Western blots probed with anti-phospho threonine 308 Akt (panel A), anti-phospho serine 473 Akt (panel B), anti-phospho-serine 9 GSK3β (panel C), anti-phospho-serine 33, 37 and […] β-catenin (panel D) or anti-actin antibodies (panel E). Akt was immunoprecipitated from those lysates using anti-Akt antibodies, incubated with a fusion peptide containing the 20 N-terminal amino acids of GSK3β and analyzed in Western-blots probed using anti-phospho-serine 9 GSK3β antibodies (panel F).
To pursue this pathway of nuclear import of β-catenin, HUVS cells were stimulated with PTN (50 ng/ml), lysed, and analyzed in Western blots probed with anti-phosphothreonine 308 Akt or anti-phosphoserine 473 Akt antibodies (FIG. 11, panel A and B). […]
The association of adaptor proteins that associate with specific phosphorylated sites in activated EGFR are responsible for the activation of phosphatidyl-inositol 3-kinase (PI3K). […] The cells were stimulated with PTN for 2, 5, 10, and 20 minutes, cell lysates were prepared, and the lysates were analyzed in Western blots probed with anti-phospho-Akt (Ser473), anti-phospho-GSKβ (Ser9), and anti-phospho-β-catenin (Thr42) antibodies. […]

The test system of test [2] is MDA-MB-231 cell xenograft. Kind of test: MDA-MB-231 xenograft growth in flanks of nude mice. In kind it is in vivo. The settings on record: 50 mg/kg daily oral gavage. Here is the method:
FIG. 22: FIG. 22 illustrates: in (A), the c-met/ALK dual inhibitor PF2341066 blocks growth of MDA-MB-231 cells. MDA-MB-231 breast cancer cells were treated with 1 nM, 10 nM, 100 nM, and 1 μM PF2341066, the number of viable cells was counted for ten days, and represented as average with standard deviation. In (B), The c-met/ALK dual inhibitor PF2341066 blocks growth of T47D cells. T47D breast cancer cells were treated with 1 nM, 10 nM, 100 nM, and 1 μM PF2341066, the number of viable cells was counted for ten days, and represented as average with standard deviation. In (C), The ALK inhibitor PF2341066 delays MDA-MB-231 cell growth as tumors in flanks of nude mice. MDA-MB-231 cells were injected in flanks of nude mice. The mice were divided in two groups, which were given 50 mg/kg PF2341066 daily by oral gavage or an equal volume of DMSO as control. Tumor size was measured daily and is represented as average tumor burden in each group. […]
Male athymic nude mice (8 weeks old, Cby.Cg-Foxn1nu) were used. […] The sites of injection were observed daily for tumor growth beginning 1 day after injection and tumor length (L) and width (W) were measured, and tumor volume was estimate using the formula (LXW2)/2.

Test [3] deals with T47D cells. Kind of test: growth of T47D breast cancer cells in culture (viable cell count). In kind it is cell-based, human. As to the method: (§1) FIG. 22: FIG. 22 illustrates: in (A), the c-met/ALK dual inhibitor PF2341066 blocks growth of MDA-MB-231 cells. MDA-MB-231 breast cancer cells were treated with 1 nM, 10 nM, 100 nM, and 1 μM PF2341066, the number of viable cells was counted for ten days, and represented as average with standard deviation. In (B), The c-met/ALK dual inhibitor PF2341066 blocks growth of T47D cells. T47D breast cancer cells were treated with 1 nM, 10 nM, 100 nM, and 1 μM PF2341066, the number of viable cells was counted for ten days, and represented as average with standard deviation. In (C), The ALK inhibitor PF2341066 delays MDA-MB-231 cell growth as tumors in flanks of nude mice. MDA-MB-231 cells were injected in flanks of nude mice. The mice were divided in two groups, which were given 50 mg/kg PF2341066 daily by oral gavage or an equal volume of DMSO as control. Tumor size was measured daily and is represented as average tumor burden in each group.
(§2) The MDA-MB-231 (FIG. 22A) and T47D (FIG. 22B) cells were then treated with the ALK inhibitor PF2341066.
(§3) MDA-MB-231, MCF-7, and T47D cells were obtained from American Tissue Collection Center (ATCC) and grown in DMEM supplemented with 10% fetal bovine serum (FBS) and 1% penicillin/streptomycin at 37° C. in a 5% CO2 atmosphere. […]

In test [4] the test system is MDA-MB-231 cells. Briefly: growth of MDA-MB-231 breast cancer cells in culture (viable cell count). In kind it is cell-based, human. As to the method: as §1, §2, §3
The subject of test [5] is β-catenin. Briefly: tyrosine phosphorylation of β-catenin in PTN-stimulated U87MG cells. In kind it is cell-based, human. As to conditions: U87MG cells preincubated with inhibitor; 50 ng PTN/ml. As to the method:
FIG. 1: FIG. 1 illustrates in (A) PTN stimulation of tyrosine phosphorylation of β-catenin in cells that express RPTPβ/ζ and ALK. COS7 cells transiently expressing ALK and RPTPβ/ζ were stimulated with 10 ng PTN/ml. Cell lysates were prepared and used to immunoprecipitate β-catenin. The immunoprecipitates were analyzed in Western blots probed with anti-phosphotyrosine antibodies. Lane 1, cells transfected with ALK that were not stimulated with PTN. Lane 2, cells transfected with ALK stimulated with PTN. Lane 3, cells transfected with empty vector not stimulated with PTN. Lane 4, cells transfected with empty vector stimulated with PTN. […] The immunoprecipitates were analyzed in Western blots probed with anti-phosphotyrosine antibodies. […] Cell lysates were used to immunoprecipitate β-catenin and the immunoprecipitates were analyzed in Western blots probed with anti-phospho-tyrosine antibodies and reprobed with anti-β-catenin antibodies. […] MCF-7 cells that stably express EGFR/RPTPβ/ζ not transfected with ALK were analyzed as above. […] Lysates of MCF-7 cells and lysates of MCF-7 cells stimulated with EGF were used to immunoprecipitate β-catenin and the immunoprecipitates were analyzed in Western blots probed with anti-phospho-tyrosine antibodies and separately with anti-β-catenin antibodies. […]

Test [6] has as its system β-catenin. Briefly: ubiquitination of β-catenin in HUVS cells (Rad23 capture). In kind it is cell-based, human. The settings on record: PTN-stimulated cells pre-incubated with proteasome inhibitor. As to the method: FIG. 12: FIG. 12 illustrates: human umbilical vein stromal cells not stimulated (lane 1) or stimulated with 50 ng/ml of PTN for 15 (lane 2), or 30 minutes (lane 3) were used to prepare cell lysates that were incubated with Rad23-conjugated agarose beads to pull-down ubiquitinated proteins and analyzed in Western-blots probed with anti-β-catenin antibodies (upper panel) and reprobed with anti-ubiquitin antibodies (lower panel). Cells pre-incubated with LY294002 were stimulated with PTN for 15 minutes (lane 4). Cells pre-incubated with lactacystin were stimulated with PTN for 15 minutes (lane 5).
Human umbilical vein stromal cells were lysed in a buffer prepared with 50 mM Tris, pH 7.2, 150 mM NaCl pH 7.5, 1% NP40, 0.25% sodium deoxicholate, Complete EDTA-free Protease Inhibitor Cocktail and 2 mM sodium orthovanadate. […] The beads were washed 4 times with lysis buffer and analyzed using Western blots.
β-catenin is rapidly degraded through the ubiquitin proteasome proteolytic pathway, thereby setting steady state levels of β-catenin by balancing its degradation with new synthesis of this key regulatory protein. […] Proteins captured with Rad23 Sepharose were eluted and analyzed in Western blots probed with anti-β-catenin antibodies (FIG. 12, upper panel) and the blots were reprobed with anti-ubiquitin antibodies (FIG. 12, lower panel). […]

In test [7] the test system is β-catenin. Kind of test: tyrosine phosphorylation of β-catenin in MCF-7-EGFR/RPTPβ/ζ cells expressing ALK. In kind it is cell-based. As to the method: FIG. 1: FIG. 1 illustrates in (A) PTN stimulation of tyrosine phosphorylation of β-catenin in cells that express RPTPβ/ζ and ALK. COS7 cells transiently expressing ALK and RPTPβ/ζ were stimulated with 10 ng PTN/ml. Cell lysates were prepared and used to immunoprecipitate β-catenin. The immunoprecipitates were analyzed in Western blots probed with anti-phosphotyrosine antibodies. Lane 1, cells transfected with ALK that were not stimulated with PTN. Lane 2, cells transfected with ALK stimulated with PTN. Lane 3, cells transfected with empty vector not stimulated with PTN. Lane 4, cells transfected with empty vector stimulated with PTN. In (B), ALK and RPTPβ/ζ, but not Src, are necessary for PTN to stimulate tyrosine phosphorylation of activation of β-catenin. U87MG cells and U87MG cells that had been transfected with an shRNA targeting either RPTPβ/ζ or ALK or preincubated with the src inhibitor PP2 were stimulated with 50 ng PTN/ml or not (control) and cell lysates used to immunoprecipitate β-catenin. The immunoprecipitates were analyzed in Western blots probed with anti-phosphotyrosine antibodies. […] Cell lysates were used to immunoprecipitate β-catenin and the immunoprecipitates were analyzed in Western blots probed with anti-phospho-tyrosine antibodies and reprobed with anti-β-catenin antibodies. […] MCF-7 cells that stably express EGFR/RPTPβ/ζ not transfected with ALK were analyzed as above. […] Lysates of MCF-7 cells and lysates of MCF-7 cells stimulated with EGF were used to immunoprecipitate β-catenin and the immunoprecipitates were analyzed in Western blots probed with anti-phospho-tyrosine antibodies and separately with anti-β-catenin antibodies. Lysates of MCF-7 cells transfected with ALK and stimulated with PTN, EGF or pervanadate were immunoprecipitated with anti-β-catenin antibodies and the immunoprecipitates were analyzed in Western blots probed with anti-phospho-tyrosine antibodies and separately with anti-β-catenin antibodies. […]

The subject of test [8] is ALK. Briefly: tyrosine phosphorylation of ALK in MCF-7-EGFR/RPTPβ/ζ cells. In kind it is cell-based. As to conditions: EGF at 1 minute and at 5 minutes.

On to `COc1cc2ncnc(Nc3cccc(Cl)c3)c2cc1OC` [AG1478, reference compound], for which, in test [1], the “PTN-stimulated activation of Akt (phospho-Akt serine 473)” value is on record as “effectively prevented”.
For `C[C@@H](Oc1cc(-c2cnn(C3CCNCC3)c2)cnc1N)c1c(Cl)ccc(F)c1Cl` [PF2341066], the “reduction of tumor burden” value was “about 3.5 fold” in test [2] (day 22) and “about 3 fold” in test [2] (end of the experiment). For the same compound, the “proliferation of T47D cells” value in test [3] (1 nM-1 μM, ten days) was “dose-dependent block in proliferation”. For the same compound, the “reduction of T47D cell growth” value in test [3] (1 μM) was “about 13 fold”. In test [4] (1 nM-1 μM, ten days), the “proliferation of MDA-MB-231 cells” value was “dose-dependent block in proliferation”. In test [4] (1 μM), the “growth of MDA-MB-231 cells” value is recorded as “effectively prevented growth”.
`CC(C)(C)n1nc(-c2ccc(Cl)cc2)c2c(N)ncnc21` [PP2, reference compound]: the “inhibition of PTN-stimulated tyrosine phosphorylation of β-catenin” value in test [5] is listed as “failed to inhibit”.
`CC(=O)N[C@@H](CSC(=O)[C@]1([C@@H](O)C(C)C)NC(=O)[C@H](C)[C@@H]1O)C(=O)O` [lactacystin, reference compound]: in test [6], the “ubiquitinated β-catenin levels” value is on record as “remained at the level in HUVS cells not stimulated with PTN”.
Regarding epidermal growth factor [EGF], the “increase in tyrosine phosphorylation of β-catenin” value in test [7] (1 minute after stimulation with EGF) is reported as “about 11 fold”. For the same compound, in test [7] (5 minutes after stimulation with EGF), the “tyrosine phosphorylation of β-catenin” value is listed as “Even higher levels”. Moreover, the “tyrosine phosphorylation of ALK” value in test [8] is on record as “marked increase”.
As to sodium pervanadate [reference compound], in test [7] (stimulated with sodium pervanadate), the “increase in tyrosine phosphorylation of β-catenin” value is given as “about 17 fold”.
